In the NIST ThermoML archive (doi:10.1016/j.jct.2014.06.001):
± gives the expanded uncertainty stated by the source.

Details: for mass density: 293 K, 101.33 kPa, Pycnometric method; for vapor or sublimation pressure: Transpiration method

Q: Which mass density (Crystal) does the source give for `CCN1C(=O)CC(=O)N(CC)C1=S` [1,3-diethyl-2-thiobarbituric acid] here?
A: 1610 ± 20 kg/m3

Q: And the “vapor or sublimation pressure” value (327.3 K, Crystal)?
A: 0.00039 ± 3e-05 kPa

Q: And the “vapor or sublimation pressure” value (333.6 K, Crystal)?
A: 0.00074 ± 5e-05 kPa

Q: And the “vapor or sublimation pressure” value (337.7 K, Crystal)?
A: 0.0011 ± 8e-05 kPa

Q: What about the “vapor or sublimation pressure” value (340 K, Crystal) of the same compound?
A: 0.00135 ± 0.0001 kPa

Q: What about the “vapor or sublimation pressure” value (343 K, Crystal) of the same compound?
A: 0.00185 ± 0.00014 kPa

Q: And the “vapor or sublimation pressure” value (348 K, Crystal)?
A: 0.00293 ± 0.00022 kPa

Q: What about the “vapor or sublimation pressure” value (349.1 K, Crystal) of the same compound?
A: 0.0034 ± 0.00024 kPa

Q: What about the “vapor or sublimation pressure” value (351 K, Crystal) of the same compound?
A: 0.00384 ± 0.00028 kPa

Q: And the “vapor or sublimation pressure” value (353.3 K, Crystal)?
A: 0.00489 ± 0.00036 kPa

Q: And the “vapor or sublimation pressure” value (354.1 K, Crystal)?
A: 0.00551 ± 0.00041 kPa

Q: What about the “vapor or sublimation pressure” value (355.3 K, Crystal) of the same compound?
A: 0.00634 ± 0.00045 kPa

Q: And the “vapor or sublimation pressure” value (358.1 K, Crystal)?
A: 0.00756 ± 0.00055 kPa

Q: And the “vapor or sublimation pressure” value (362.4 K, Crystal)?
A: 0.01184 ± 0.00086 kPa

Q: What about the “vapor or sublimation pressure” value (367.7 K, Crystal) of the same compound?
A: 0.01865 ± 0.0014 kPa

Q: And the “vapor or sublimation pressure” value (368.6 K, Crystal)?
A: 0.02034 ± 0.0015 kPa

Q: And the “vapor or sublimation pressure” value (370.7 K, Crystal)?
A: 0.02408 ± 0.0017 kPa

Q: What about the “vapor or sublimation pressure” value (372.2 K, Crystal) of the same compound?
A: 0.02684 ± 0.0019 kPa

Q: And the “vapor or sublimation pressure” value (375.7 K, Crystal)?
A: 0.03524 ± 0.0025 kPa

Q: What about the “vapor or sublimation pressure” value (375.9 K, Crystal) of the same compound?
A: 0.03465 ± 0.0024 kPa

Q: Which mass density (Crystal) does the source give for `CCN1C(=O)CC(=O)N(CC)C1=O` [1,3-diethylbarbituric acid] here?
A: 1320 ± 20 kg/m3

Q: What about the “vapor or sublimation pressure” value (328.9 K, Liquid) of the same compound?
A: 0.00282 ± 0.00021 kPa

Q: And the “vapor or sublimation pressure” value (333.8 K, Liquid)?
A: 0.00441 ± 0.00032 kPa

Q: What about the “vapor or sublimation pressure” value (339.1 K, Liquid) of the same compound?
A: 0.00675 ± 0.00048 kPa

Q: What about the “vapor or sublimation pressure” value (346 K, Liquid) of the same compound?
A: 0.0115 ± 0.00082 kPa

Q: And the “vapor or sublimation pressure” value (351.2 K, Liquid)?
A: 0.01744 ± 0.0012 kPa

Q: And the “vapor or sublimation pressure” value (356.2 K, Liquid)?
A: 0.02535 ± 0.0018 kPa

Q: And the “vapor or sublimation pressure” value (360.3 K, Liquid)?
A: 0.03131 ± 0.0022 kPa

Q: What about the “vapor or sublimation pressure” value (366 K, Liquid) of the same compound?
A: 0.04999 ± 0.0036 kPa

Q: What about the “vapor or sublimation pressure” value (371.3 K, Liquid) of the same compound?
A: 0.07142 ± 0.005 kPa

Q: And the “vapor or sublimation pressure” value (376.8 K, Liquid)?
A: 0.09721 ± 0.0069 kPa

Q: What about the “vapor or sublimation pressure” value (380.7 K, Liquid) of the same compound?
A: 0.1327 ± 0.0094 kPa
